According to US20240130675A1, “Methods for Treating Autism Spectrum Disorder” (The General Hospital Corporation, priority 2021, published 2024):

Columns and labels:
PgACC glutamate activity = PgACC glutamate activity by 2D-JPRESS 1H MRS at 4T, pre- and post-treatment; type: in vivo, human
Description: Glutamate response to memantine therapy in the PgACC was assessed by acquiring spectroscopic MRI pre- and post-treatment.
Healthy Control Participants were enrolled for spectroscopic neuro-imaging data acquisition to form a control group. Healthy controls (HC) were age, sex, and IQ-matched with enrolled ASD participants. HC participants were with no significant autistic traits, as screened by SRS-2 raw score of<60, and with no major psychopathology, as established by the K-SADS-E and confirmed by clinical diagnostic interview.
Data Acquisition—Proton spectra were acquired at 4T using a two-dimensional J-resolved (2D-JPRESS) ^1HMRS protocol. A 2D-JPRESS sequence was chosen to improve reliability for spectral fitting of the metabolites(Gonenc et al., 2010; Moore et al., 2007), allow analysis of glutamate alone versus ratios or combined measures (e.g., Glx), and confirm that measured metabolic differences truly arise from differences in metabolic levels and not from T2 relaxation time differences. […] Data were collected in 12 TE-stepped spectra with the echo-time ranging from 30 to 250 ms in 20 ms increments, with TR=2s, averages=16, scan duration=7 minutes.
Data Processing: Spectral analysis was conducted in a fully automated fashion using the commercially available LCModel package (version 6.2-1F). After the 2D-JPRESS dataset was resolved into a series of one-dimensional spectra where each spectrum was modeled and fitted with GAMMA simulated96 J-resolved basis sets, glutamate activity levels were derived from the total integral across the J-series. Glutamate transverse relaxation time (T2) was obtained from the raw peak vs. TE decay curve fitted with Levenberg-Marquardt algorithm using an exponential decay function (for glutamate T2) convoluted with a polynomial function (for glutamate J-coupling) which was obtained from the GAMMA simulation run with previously measured spectral parameters (Govindaraju, Young, & Maudsley, 2000). Data quality was assessed by LCModel calculated Full Width Half Maximum (FWHM), Signal to Noise Ratio (SNR) and Cramer-Rao Lower Bounds (CRLB).
The primary outcome was analyzed using Pearson's chi-square test at the a priori defined significance level of 0.05. Secondary measures of efficacy were analyzed using mixed-effects regression models with robust standard errors to account for the repeated measures on each subject. The primary and secondary measures were compared between memantine versus placebo as well as between those with high versus normal baseline glutamate activity levels. Participants were categorized as having high versus normal glutamate activity levels at baseline using z-scores. The population mean and SD for z-score calculations were derived from healthy control glutamate activity levels (baseline and endpoint). Glutamate activity levels with z-scores≥1 were categorized as high glutamate activity levels, those with z-scores<1 and >−1 were categorized as normal glutamate activity levels and those with z-scores≤−1 were categorized as low glutamate activity levels. Changes in PgACC glutamate activity levels within groups were tested using paired t-tests and changes between groups were tested using two-sample t-tests. We also performed ROC curve analyses to determine the predictive utility of baseline PgACC glutamate activity levels in identifying treatment responders within the memantine and placebo groups. All analyses apart from the analysis of the primary outcome were considered exploratory. Analyses were performed using a modified intent-to-treat analysis set which included all randomized patients who were regarded exposed to study medication (completed at least two weeks of treatment) and had at least one follow-up assessment.

youth with ASD = experiment: 12-week RCT: safety and tolerability (treatment-emergent AEs, vital signs, early terminations, rescue medication); type: in vivo, human
Description: This study was a 12-week, randomized, double-blind, placebo-controlled, parallel group clinical trial of memantine in youth with ASD. Youth with ASD who met the eligibility criteria were randomized to receive either memantine or placebo during the course of the 12-week trial. Participants underwent multimodal MRI scans prior to and upon completion of the 12-week trial. Participants were assessed weekly during the titration phase (baseline to Week 4) and at midpoint (Week 6), Week 9, and completion (Week 12) during the maintenance phase. At each study visit, safety and efficacy were assessed by administering measures of efficacy (CGI, GAF), tolerability (assessing treatment-emergent AEs), and safety (vital signs, including weight). At baseline, midpoint, and endpoint (completion/early termination) severity of autism was assessed by administering measures of autism severity (SRS-2, ABC-SW, CY-BOCS-PDD) and associated psychopathology (ADHD-RS, CDRS-R, CASI-ANX).
Safety and tolerability of memantine was monitored by administering a complete physical examination, battery of blood tests (complete blood count, electrolytes, liver function test, thyroid function test, and random glucose levels), Urine tests (drug screen and pregnancy screen [women of child-bearing potential only]), and EKG at baseline and endpoint of the trial, and by recording treatment-emergent AEs and obtaining vital signs (pulse, blood pressure, weight) at each study visit.
Safety results were summarized descriptively by treatment group and baseline glutamate activity level (high versus normal) and compared at the end of the study using Fisher's exact or Pearson's chi-square tests. All analyses were performed using Stata (Version 16) (StataCorp, Stata Statistical Software: Release 16. College Station, TX: StataCorp LLC. 2019).

CC12CC3CC(C)(C1)CC(N)(C3)C2 [MEM, memantine]
PgACC Glutamate Activity BL (PgACC glutamate activity; High-Glu ASD Sample, MEM Group N = 10, baseline): 109.1 ± 11.9 | PgACC Glutamate Activity EP (PgACC glutamate activity; High-Glu ASD Sample, MEM Group N = 10, endpoint): 78.7 ± 13.6 | PgACC Glutamate Activity MD (PgACC glutamate activity; High-Glu ASD Sample, MEM Group N = 10, mean difference BL to EP): −30.3 ± 23.3 | PgACC Glutamate Activity ASD vs. HC MD @ EP (PgACC glutamate activity; High-Glu ASD Sample, MEM Group N=10 vs HC N = 13): −2.5 ± 34.3 | PgACC Glutamate Activity ASD vs. HC MD @ BL (PgACC glutamate activity; High-Glu ASD Sample, MEM Group N=10 vs HC N = 16): −32.5 ± 32.4 | PgACC Glutamate Activity BL (PgACC glutamate activity; High-Glu ASD Sample, MEM Responders N = 8, baseline): 111.1 ± 12.5 | PgACC Glutamate Activity EP (PgACC glutamate activity; High-Glu ASD Sample, MEM Responders N = 8, endpoint): 75.8 ± 13.6 | PgACC Glutamate Activity MD (PgACC glutamate activity; High-Glu ASD Sample, MEM Responders N = 8, mean difference BL to EP): −35.4 ± 23.5 | PgACC Glutamate Activity ASD vs. HC MD @ EP (PgACC glutamate activity; High-Glu ASD Sample, MEM Responders N=8 vs HC N = 13): 0.5 ± 35.7 | PgACC Glutamate Activity ASD vs. HC MD @ BL (PgACC glutamate activity; High-Glu ASD Sample, MEM Responders N=8 vs HC N = 16): −34.5 ± 34.4 | MD in Glu w/ Tx: MD MEM vs PBO (PgACC glutamate activity; High-Glu ASD, MEM = 10 PBO = 8): −21.5 ± 37.3 | MD in Glu w/ Tx: MD H-Glu vs N-Glu (PgACC glutamate activity; MEM Group, H-Glu N = 10 vs N-Glu N = 5): 32.2 ± 43.1 | PgACC Glutamate Activity BL (PgACC glutamate activity; Normal-Glu ASD Sample, MEM Group/Non-Responders N = 5, baseline): 84.1 ± 8.6 | PgACC Glutamate Activity EP (PgACC glutamate activity; Normal-Glu ASD Sample, MEM Group/Non-Responders N = 5, endpoint): 86.0 ± 2.8 | PgACC Glutamate Activity MD (PgACC glutamate activity; Normal-Glu ASD Sample, MEM Group/Non-Responders N = 5, mean difference BL to EP): 1.9 ± 10.8 | PgACC Glutamate Activity ASD vs. HC MD @ EP (PgACC glutamate activity; Normal-Glu ASD Sample, MEM Group/Non-Responders N=5 vs HC N = 13): −9.7 ± 37.2 | MD in Glu w/ Tx: MD MEM vs PBO (PgACC glutamate activity; Normal-Glu ASD, MEM = 5): −6.3 ± 24.1 | PgACC Glutamate Activity ASD vs. HC MD @ BL (PgACC glutamate activity; Unselected ASD Sample, MEM Group (MEM=19) vs HC N = 16): −19.8 ± 34.5^[MEM=19] | PgACC Glutamate Activity BL (PgACC glutamate activity; Unselected ASD Sample, MEM Group N = 15, baseline, mean ± SD): 100.8 ± 16.1 | PgACC Glutamate Activity EP (PgACC glutamate activity; Unselected ASD Sample, MEM Group N = 15, endpoint, mean ± SD): 81.2 ± 11.6 | PgACC Glutamate Activity MD (PgACC glutamate activity; Unselected ASD Sample, MEM Group N = 15, mean difference BL to EP): −19.6 ± 25.1 | PgACC Glutamate Activity ASD vs. HC MD @ EP (PgACC glutamate activity; Unselected ASD Sample, MEM Group N=15 vs HC N = 13): −4.9 ± 31.2 | PgACC Glutamate Activity BL (PgACC glutamate activity; Unselected ASD Sample, MEM Non-responders N = 7, baseline): 88.9 ± 10.9 | PgACC Glutamate Activity EP (PgACC glutamate activity; Unselected ASD Sample, MEM Non-responders N = 7, endpoint): 87.3 ± 3.9 | PgACC Glutamate Activity MD (PgACC glutamate activity; Unselected ASD Sample, MEM Non-responders N = 7, mean difference BL to EP): −1.6 ± 10.7 | PgACC Glutamate Activity ASD vs. HC MD @ EP (PgACC glutamate activity; Unselected ASD Sample, MEM Non-responders N=7 vs HC N = 13): −11.1 ± 33.1 | PgACC Glutamate Activity ASD vs. HC MD @ BL (PgACC glutamate activity; Unselected ASD Sample, MEM Non-responders N=7 vs HC N = 16): −12.3 ± 34.9 | PgACC Glutamate Activity BL (PgACC glutamate activity; Unselected ASD Sample, MEM Responders N = 8, baseline): 111.1 ± 12.5 | PgACC Glutamate Activity EP (PgACC glutamate activity; Unselected ASD Sample, MEM Responders N = 8, endpoint): 75.8 ± 13.6 | PgACC Glutamate Activity MD (PgACC glutamate activity; Unselected ASD Sample, MEM Responders N = 8, mean difference BL to EP): −35.4 ± 23.5 | PgACC Glutamate Activity ASD vs. HC MD @ EP (PgACC glutamate activity; Unselected ASD Sample, MEM Responders N=8 vs HC N = 13): 0.48 ± 35.7 | PgACC Glutamate Activity ASD vs. HC MD @ BL (PgACC glutamate activity; Unselected ASD Sample, MEM Responders N=8 vs HC N = 16): -34.5 ± 34.4 | MD in Glu w/ Tx: MD MEM vs PBO (PgACC glutamate activity; Unselected ASD, MEM = 15, PBO = 16): −12.2 ± 38.3 | Magnitude of PgACC glutamate reduction, memantine versus placebo (PgACC glutamate activity; high glutamate sample): significantly higher | PgACC glutamate activity with treatment versus HCs (PgACC glutamate activity; high glutamate sample, memantine group): not significantly different from HCs | Change with treatment in PgACC glutamate activity, baseline to endpoint (PgACC glutamate activity; high glutamate sample, memantine treated group): significant reduction | Change with treatment in PgACC glutamate activity, baseline to endpoint (PgACC glutamate activity; normal-glutamate sample): did not change significantly | Change with treatment in PgACC glutamate activity, baseline to endpoint (PgACC glutamate activity; unselected sample of ASD, memantine treated group): significant reduction | Mean # of AEs (youth with ASD; Glu Based Sample [MEM] High [N = 10]): 2.4 ± 1.3 | Mean # of AEs (youth with ASD; Glu Based Sample [MEM] Normal [N = 8]): 2.8 ± 1.0 | Early Terminations: Treatment Limiting AEs (youth with ASD; Unselected Sample MEM [N = 21]): Four | Mean # of AEs (youth with ASD; Unselected Sample MEM [N = 21]): 2.2 ± 1.2 | Participants completed trial (12 weeks) (youth with ASD; Unselected Sample MEM [N = 21]): 16 N | Severe AEs (youth with ASD; Unselected Sample MEM [N = 21]): Two | Severe AEs: Headache (youth with ASD; Unselected Sample MEM [N = 21]): 5% | Severe AEs: Irritability + Agitation (Worsening) (youth with ASD; Unselected Sample MEM [N = 21]): 5%
